Source: patent publication US20240173279A1, “Method of Treatment for Autophagy Diseases by Administration of Dexibuprofen and Use of Dexibuprofen for Preparation of a Medicament for Same” (JEM THERAPEUTICS PBC, priority 2021, published 2024)
Like-named read-outs stand apart in the source and are kept apart here.

Legend:
[1] = tested on: Hereditary Spastic Paraparesis, homozygous TECPR2 mutations; test: Treatment of a patient with Hereditary Spastic Paraparesis (Example 2); type: in vivo; settings: human patient, daily oral doses, after 30 days of treatment
Description: A human patient is tested and found to be homozygous for TECPR2 mutations and suffering from neurodegenerative issues related to Hereditary Spastic Paraparesis. The patient is given daily oral doses of dexibuprofen to reduce the effects of the disease.

[2] = in vivo; cited from earlier work
[3] = cited from earlier work; for safety / side effect profile compared to ibuprofen: published studies, incl. pediatric population

SMILES | neurodegenerative issues relating to TECPR2 mutations [1] | crossing of the blood brain barrier (BBB) [2] | safety profile compared to acetaminophen ([3]; in vivo) | safety / side effect profile compared to ibuprofen [3] | safety / side effect profile compared to ibuprofen ([3]; listed as dexibuprofen)
CC(C)Cc1ccc([C@H](C)C(=O)O)cc1 [Dexibuprofen, (S)-a-methyl-4-(2-methylpropyl)benzeneacetic acid] | reduced neurodegenerative issues | crosses the blood brain barrier | superior safety profile to acetaminophen | extremely similar to ibuprofen | did not note safety differences
CC(C)Cc1ccc(C(C)C(=O)O)cc1 (stereo not drawn) [ibuprofen] |  | crosses the blood brain barrier |  |  | 
